“Also recorded” adds a separate entry of the source.
Key:
T47D cells = experiment: Cell proliferation assay, T47D; type: cell-based, human; conditions: 10 nM with 2 nM estradiol-17β, 48 hr
[1] = test system: 4T1 triple negative breast cancer cells; experiment: 4T1 cell proliferation in vitro, Incucyte live-cell confluence; type: cell-based, mouse; conditions: 10, 100, 1000 nM, presence or absence of estradiol-17β, 5 days
Experimental: FIGS. 23A-23C show estrogen effects on ERα negative tumor growth in vitro and in vivo. […] Female 6-wk-old BALB/c mice, either ovariectomized (ovx) or sham-operated (intact), were inoculated s.c. with 2×10^5 4T1 TNBC cells. Tumor growth was then assessed every 3 days, with tumor volume calculated as V=(l×w×w)/2. ****P≤0.0001. […] 4T1 cells were grown in the presence (+E2) or absence (−E2) of estradiol-17β and increasing concentrations of SERD128 at 10 nM (128-10), 100 nM (128-100) or 1000 nM (128-1000). Cell proliferation was assessed using the Incucyte S3 Live-Cell Analysis system with pictures obtained every 4-6 hours. […] Tumors were measured every 3 days, and tumor volume was calculated as V=(W(2)×L)/2). **P<0,01, ****P<0.0001 as compared to control group. n=11-12.
MCF-7 and other selected BC cells were seeded in 96-well plates at […] in complete medium. […] Cell number and viability were determined by either cell counts or by colorimetric assays using the CELLTITER 96 AQUEOUS (Promega) assay or the cell proliferation ELISA BrdU assay (Roche) as per manufacturer's instructions. […] In selected experiments using the INCUCYTE™ Live Cell System (Essen Bioscience) as per the manufacturer's instructions, the proliferation of 4T1 cells maintained in a tissue culture incubator was monitored by using the NucLight Rapid Red Reagent for cell labeling in 6-well plates. […]

For C[C@]12C[C@H](Oc3ccc(N)c(C(F)(F)F)c3)[C@@H]3c4ccc(O)cc4CC[C@H]3[C@@H]1CC[C@@H]2O [SERD128, (8S,9S,11S,13S,14S,17S)-11-(4-Amino-3-(trifluoromethyl)phenoxy)-13-methyl-7,8,9,11,12,13,14,15,16,17-decahydro-6H-cyclopenta[a]phenanthrene-3,17-diol], the “cell proliferation (% of estradiol-treated controls)” value (T47D cells) was “significantly blocked proliferation; also recorded: significantly inhibited” and the “4T1 cell proliferation (phase object confluence)” value [1] was “No significant differences were observed in cell proliferation; also recorded: did not elicit any significant effect on cell growth in vitro”.
